In ChEMBL document CHEMBL2073784, “Involvement of organic anion transporting polypeptides in the transport of troglitazone sulfate: implications for understanding troglitazone hepatotoxicity” (Drug Metab Dispos, 2004):
Structures can show the parent of a compound that is named as a salt.

Tests used:
[1] = biological target: T1, Solute carrier organic anion transporter family member 1B1 (Homo sapiens, UniProt Q9Y6L6); experiment: TP_TRANSPORTER: uptake in OATP1B1-expressing HEK293 cell; type: functional, cell-based
T1 sequence (Q9Y6L6 whole entry): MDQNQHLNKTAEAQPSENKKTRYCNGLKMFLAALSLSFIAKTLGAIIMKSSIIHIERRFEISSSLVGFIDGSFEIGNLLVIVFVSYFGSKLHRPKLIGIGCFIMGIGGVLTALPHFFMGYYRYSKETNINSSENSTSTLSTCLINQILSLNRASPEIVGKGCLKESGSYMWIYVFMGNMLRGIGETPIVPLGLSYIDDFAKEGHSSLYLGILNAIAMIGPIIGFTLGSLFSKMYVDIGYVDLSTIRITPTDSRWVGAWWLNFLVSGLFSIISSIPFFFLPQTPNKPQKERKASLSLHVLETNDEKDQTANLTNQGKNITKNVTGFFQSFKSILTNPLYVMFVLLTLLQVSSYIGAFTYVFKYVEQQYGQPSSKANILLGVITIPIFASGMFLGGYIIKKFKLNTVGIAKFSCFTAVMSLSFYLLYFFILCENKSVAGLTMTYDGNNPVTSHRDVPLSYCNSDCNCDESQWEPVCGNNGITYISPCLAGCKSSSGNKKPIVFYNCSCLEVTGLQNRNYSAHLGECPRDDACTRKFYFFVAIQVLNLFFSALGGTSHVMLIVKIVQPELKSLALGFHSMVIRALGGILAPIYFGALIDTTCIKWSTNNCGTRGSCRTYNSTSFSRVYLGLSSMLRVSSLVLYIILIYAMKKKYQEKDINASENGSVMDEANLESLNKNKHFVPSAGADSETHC

OATP1B1 (SLCO1B1) [2] = biological target: T2, OATP1B1 (SLCO1B1) (Homo sapiens, UniProt Q9Y6L6); experiment: TP_TRANSPORTER: inhibition of Estrone-3-sulfate uptake(Estrone-3-sulfate: 9.2nM) in Xenopus laevis oocytes; type: functional, cell-based, Oocyte; set-up: scale not given: the % may be the effect or the level left; details: probe estrone-3-sulfate
T2 sequence (Q9Y6L6 whole entry): T1 sequence (Q9Y6L6 whole entry)

[3] = biological target: T1, Solute carrier organic anion transporter family member 1B1; experiment: TP_TRANSPORTER: inhibition of E1S uptake (SN38 G 10 u M) in OATP1B1-expressing HEK293 cells; type: functional, cell-based; details: hek293, 10 µM
[4] = biological target: T3, Solute carrier organic anion transporter family member 1B3 (Homo sapiens, UniProt Q9NPD5); experiment: TP_TRANSPORTER: uptake of SN-38 at a concentration of 0.09uL/oocyte in Xenopus laevis oocytes; type: functional, cell-based
T3 sequence (Q9NPD5 whole entry): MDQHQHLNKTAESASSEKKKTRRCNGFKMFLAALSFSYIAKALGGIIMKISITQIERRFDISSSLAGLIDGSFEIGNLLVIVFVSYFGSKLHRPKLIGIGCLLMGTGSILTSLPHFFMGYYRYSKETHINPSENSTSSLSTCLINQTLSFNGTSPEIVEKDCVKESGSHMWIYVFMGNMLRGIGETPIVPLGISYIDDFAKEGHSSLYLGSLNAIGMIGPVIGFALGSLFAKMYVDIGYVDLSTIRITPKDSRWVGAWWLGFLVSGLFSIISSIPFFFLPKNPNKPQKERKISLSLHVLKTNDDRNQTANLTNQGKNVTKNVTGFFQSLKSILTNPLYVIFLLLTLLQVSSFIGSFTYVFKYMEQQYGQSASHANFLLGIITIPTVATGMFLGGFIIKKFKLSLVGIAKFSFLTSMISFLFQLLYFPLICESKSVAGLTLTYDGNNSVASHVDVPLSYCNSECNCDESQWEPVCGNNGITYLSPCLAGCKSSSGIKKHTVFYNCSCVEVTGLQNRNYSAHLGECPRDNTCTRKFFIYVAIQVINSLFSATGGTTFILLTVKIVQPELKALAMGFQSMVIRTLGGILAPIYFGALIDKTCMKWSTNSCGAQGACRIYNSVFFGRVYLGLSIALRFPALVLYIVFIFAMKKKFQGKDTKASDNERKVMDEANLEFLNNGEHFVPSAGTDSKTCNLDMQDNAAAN

[5] = biological target: T1, Solute carrier organic anion transporter family member 1B1; experiment: TP_TRANSPORTER: uptake of SN-38 at a concentration of 0.16uL/oocyte in Xenopus laevis oocytes; type: functional, cell-based
[6] = biological target: T1, Solute carrier organic anion transporter family member 1B1; experiment: TP_TRANSPORTER: uptake in OATP1B1-expressing HEK293 cells; type: functional, cell-based
[7] = biological target: T4, Solute carrier organic anion transporter family member 2B1 (Homo sapiens, UniProt O94956); experiment: TP_TRANSPORTER: uptake of SN-38 at a concentration of 0.10uL/oocyte in Xenopus laevis oocytes; type: functional, cell-based
T4 sequence (O94956 whole entry): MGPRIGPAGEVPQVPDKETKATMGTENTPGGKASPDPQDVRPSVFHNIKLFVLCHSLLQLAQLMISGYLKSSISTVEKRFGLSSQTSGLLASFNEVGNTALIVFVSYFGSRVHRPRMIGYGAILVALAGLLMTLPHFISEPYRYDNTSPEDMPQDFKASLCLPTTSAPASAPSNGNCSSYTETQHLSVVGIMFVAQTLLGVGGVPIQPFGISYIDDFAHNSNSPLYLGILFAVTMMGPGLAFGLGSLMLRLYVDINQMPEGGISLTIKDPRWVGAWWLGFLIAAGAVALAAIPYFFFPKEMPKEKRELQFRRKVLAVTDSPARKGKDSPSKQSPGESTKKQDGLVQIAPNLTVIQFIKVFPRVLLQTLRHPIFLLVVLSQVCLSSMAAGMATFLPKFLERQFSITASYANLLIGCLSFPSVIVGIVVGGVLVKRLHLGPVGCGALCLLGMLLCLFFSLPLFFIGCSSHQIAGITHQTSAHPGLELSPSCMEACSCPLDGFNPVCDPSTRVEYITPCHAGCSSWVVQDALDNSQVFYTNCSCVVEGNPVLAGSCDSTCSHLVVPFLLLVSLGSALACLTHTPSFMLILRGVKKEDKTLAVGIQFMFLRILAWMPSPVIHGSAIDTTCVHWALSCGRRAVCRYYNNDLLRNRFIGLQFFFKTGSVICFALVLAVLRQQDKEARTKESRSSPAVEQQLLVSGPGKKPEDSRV

[8] = biological target: T1, Solute carrier organic anion transporter family member 1B1; experiment: TP_TRANSPORTER: inhibition of E1S uptake (SN38 10 u M) in OATP1B1-expressing HEK293 cells; type: functional, cell-based; set-up: scale not given: the % may be the effect or the level left; details: hek293, 10 µM
[9] = biological target: T3, Solute carrier organic anion transporter family member 1B3; experiment: TP_TRANSPORTER: cell accumulation in OATP8-expressing Xenopus oocytes; type: functional, cell-based; details: xenopus laevis, oocyte
[10] = biological target: T1, Solute carrier organic anion transporter family member 1B1; experiment: TP_TRANSPORTER: cell accumulation in OATP-C-expressing Xenopus oocytes; type: functional, cell-based; details: xenopus laevis, oocyte
OATP1B1 (SLCO1B1) [11] = biological target: T2, OATP1B1 (SLCO1B1); experiment: TP_TRANSPORTER: inhibition of E1S uptake (irinotecan 10 u M) in OATP1B1-expressing HEK293 cells; type: functional, cell-based; set-up: scale not given: the % may be the effect or the level left; details: HEK293 cells expressing OATP1B1, probe estrone-3-sulfate (E1S), read-out: Activity
OATP8 (OATP1B3, SLCO1B3) [12] = biological target: T5, OATP8 (OATP1B3, SLCO1B3) (Homo sapiens, UniProt Q9NPD5); experiment: TP_TRANSPORTER: inhibition of estrone-3-sulfate uptake (Estrone-3-sulfate: 9.2 nM) by Pioglitazone at a concentration of 10uM in OATP8-expressing Xenopus oocytes; type: functional, cell-based, Oocyte; details: xenopus laevis, Xenopus laevis oocytes expressing OATP8, probe estrone-3-sulfate
T5 sequence (Q9NPD5 whole entry): T3 sequence (Q9NPD5 whole entry)

[13] = biological target: T6, OATP-C (OATP1B1, SLCO1B1) (Homo sapiens, UniProt Q9Y6L6); experiment: TP_TRANSPORTER: inhibition of estrone-3-sulfate uptake (Estrone-3-sulfate: 9.2 nM) by Pioglitazone at a concentration of 10uM in OATP-C-expressing Xenopus oocytes; type: functional, cell-based, Oocyte; details: xenopus laevis, probe estrone-3-sulfate
T6 sequence (Q9Y6L6 whole entry): T1 sequence (Q9Y6L6 whole entry)

OATP8 (OATP1B3, SLCO1B3) [14] = biological target: T5, OATP8 (OATP1B3, SLCO1B3); experiment: TP_TRANSPORTER: inhibition of estrone-3-sulfate uptake (Estrone-3-sulfate: 9.2 nM) by Quinone Form at a concentration of 10uM in OATP8-expressing Xenopus oocytes; type: functional, cell-based, Oocyte; details: xenopus laevis, Xenopus laevis oocytes expressing OATP8, probe estrone-3-sulfate
[15] = biological target: T6, OATP-C (OATP1B1, SLCO1B1); experiment: TP_TRANSPORTER: inhibition of estrone-3-sulfate uptake (Estrone-3-sulfate: 9.2 nM) by Quinone Form at a concentration of 10uM in OATP-C-expressing Xenopus oocytes; type: functional, cell-based, Oocyte; details: xenopus laevis, probe estrone-3-sulfate
[16] = biological target: T6, OATP-C (OATP1B1, SLCO1B1); experiment: TP_TRANSPORTER: inhibition of estrone-3-sulfate uptake (Estrone-3-sulfate: 9.2 nM) by Rosiglitazone at a concentration of 10uM in OATP-C-expressing Xenopus oocytes; type: functional, cell-based, Oocyte; details: xenopus laevis, probe estrone-3-sulfate
[17] = biological target: T6, OATP-C (OATP1B1, SLCO1B1); experiment: TP_TRANSPORTER: inhibition of estrone-3-sulfate uptake (Estrone-3-sulfate: 9.2 nM) by Troglitazone glucuronide at a concentration of 10uM in OATP-C-expressing Xenopus oocytes; type: functional, cell-based, Oocyte; details: xenopus laevis, probe estrone-3-sulfate
OATP8 (OATP1B3, SLCO1B3) [18] = biological target: T5, OATP8 (OATP1B3, SLCO1B3); experiment: TP_TRANSPORTER: inhibition of estrone-3-sulfate uptake (Estrone-3-sulfate: 9.2 nM) by Troglitazone sulfate at a concentration of 10uM in OATP8-expressing Xenopus oocytes; type: functional, cell-based, Oocyte; details: xenopus laevis, Xenopus laevis oocytes expressing OATP8, probe estrone-3-sulfate
[19] = biological target: T6, OATP-C (OATP1B1, SLCO1B1); experiment: TP_TRANSPORTER: inhibition of estrone-3-sulfate uptake (Estrone-3-sulfate: 9.2 nM) by Troglitazone sulfate at a concentration of 10uM in OATP-C-expressing Xenopus oocytes; type: functional, cell-based, Oocyte; details: xenopus laevis, probe estrone-3-sulfate
[20] = biological target: T6, OATP-C (OATP1B1, SLCO1B1); experiment: TP_TRANSPORTER: inhibition of estrone-3-sulfate uptake (Estrone-3-sulfate: 9.2 nM) by Troglitazone at a concentration of 10uM in OATP-C-expressing Xenopus oocytes; type: functional, cell-based, Oocyte; details: xenopus laevis, probe estrone-3-sulfate

For `CCc1c2c(nc3ccc(OC[C@@H]4O[C@H](C(=O)O)[C@@H](O)[C@H](O)[C@H]4O)cc13)-c1cc3c(c(=O)n1C2)COC(=O)[C@]3(O)CC`, the Activity [1] was “is not a substrate [-]”, the Activity (OATP1B1 (SLCO1B1) [2]) was 45% and the Activity [3] was “is not an inhibitor [-]”.

With `CCc1c2c(nc3ccc(O)cc13)-c1cc3c(c(=O)n1C2)COC(=O)[C@]3(O)CC` [7-ETHYL-10-HYDROXYCAMPTOTHECIN] the Activity [4] was “is not a substrate [-]”, the Activity [1] was “substrate [+]” and the Activity (OATP1B1 (SLCO1B1) [2]) was 85%. For the same compound, the Activity [5] was “substrate [+]”, the Activity [6] was “substrate []” and the Activity [7] was “is not a substrate [-]”. For the same compound, the Activity [8] was 50%.

With `C[C@]12CC[C@@H]3c4ccc(OS(=O)(=O)O)cc4CC[C@H]3[C@@H]1CCC2=O` [ESTRONE SULFURIC ACID] the Activity [9] was “substrate []” and the Activity [10] was “substrate []”.

With `CCc1c2c(nc3ccc(OC(=O)N4CCC(N5CCCCC5)CC4)cc13)-c1cc3c(c(=O)n1C2)COC(=O)[C@]3(O)CC` [IRINOTECAN] the Activity [1] was “is not a substrate [-]”, the Activity (OATP1B1 (SLCO1B1) [2]) was 60% and the activity at 10 µM (OATP1B1 (SLCO1B1) [11]) was 60%.

`CCc1ccc(CCOc2ccc(CC3SC(=O)NC3=O)cc2)nc1` (stereo not given) [PIOGLITAZONE] was tested, and the inhibition at 10 µM (OATP8 (OATP1B3, SLCO1B3) [12]) was 65% and the inhibition at 10 µM [13] was 70%.

Work on `CC1=CC(=O)C(C)=C(CCC(C)(C)COc2ccc(CC3SC(=O)NC3=O)cc2)C1=O` (stereo not given) [QUINONE FORM] yielded an inhibition at 10 µM (OATP8 (OATP1B3, SLCO1B3) [14]) of 60% and an inhibition at 10 µM [15] of 20%.

Compound `CN(CCOc1ccc(CC2SC(=O)NC2=O)cc1)c1ccccn1` (stereo not given) [ROSIGLITAZONE] has an inhibition at 10 µM [16] of 60%.

`Cc1c(C)c2c(c(C)c1O[C@@H]1O[C@H](C(=O)O)[C@@H](O)[C@H](O)[C@H]1O)CCC(C)(COc1ccc(CC3SC(=O)NC3=O)cc1)O2` (stereo not given in full) [TROGLITAZONE GLUCURONIDE] was tested, and the inhibition at 10 µM [17] was 30%.

`Cc1c(C)c2c(c(C)c1OS(=O)(=O)O)CCC(C)(COc1ccc(CC3SC(=O)NC3=O)cc1)O2` (stereo not given) [TROGLITAZONE SULFATE] was tested, and the inhibition at 10 µM (OATP8 (OATP1B3, SLCO1B3) [18]) was 20%, the inhibition at 10 µM [19] was 5% and the Activity [10] was “substrate []”.

For `Cc1c(C)c2c(c(C)c1O)CCC(C)(COc1ccc(CC3SC(=O)NC3=O)cc1)O2` (stereo not given) [TROGLITAZONE], the inhibition at 10 µM [20] was 35%.
